In US8436047B2, “Preventive or ameliorating agent for liver disease involving hepatopathy” (Suntory Holdings Limited, priority 2004, dated 2013):

Test system: hepatopathy induced by galactosamine (GalN/LPS)
Test: Evaluation of 5,8,11-eicosatrienoic acid ethyl ester in an animal model of hepatopathy: serum GOT after GalN/LPS
Format: in vivo
Details: male ddY mice, 10 mg/kg orally for one week, then GalN 800 mg/kg / LPS 25 μg/kg i.p., blood six hours after; control group 1024±94 IU/L
Method: Four-week-old male ddY mice were orally given 10 mg/kg of 5,8,11-eicosatrienoic acid ethyl ester (mead acid) purified from the lipid SUNTGM17 prepared in Reference Example 1 for one week, and then they were intraperitoneally given physiological saline in which D-galactosamine and lipopolysaccharide were dissolved to 800 mg/kg and 25 μg/kg and mixed (GalN/LPS). Six hours after the GalN/LPS administration, blood was drawn, serum was separated, and GPT and GOT activities in the serum were determined, which confirmed that the GOT activity was 1024±94 IU/L in the control diet group, whereas it was 413±37 IU/L in the mead acid diet group, indicating a significant suppression of hepatopathy.

CCCCCCCCC=CCC=CCC=CCCCC(=O)OCC [5,8,11-eicosatrienoic acid ethyl ester]
GOT activity in the serum: 413±37 IU/L
